The values that follow come from patent US8765940B2 (priority 2009, dated 2014).

In one experiment the target is PI3Kδ (Homo sapiens (Human), UniProt O00329). Type of experiment: biochemical. The following applies: PI3Kδ Alphascreen assay. In general terms: In Alpha technology, singlet oxygen from a donor bead excites a nearby acceptor bead.
PI3Kδ, sequence (O00329 whole entry): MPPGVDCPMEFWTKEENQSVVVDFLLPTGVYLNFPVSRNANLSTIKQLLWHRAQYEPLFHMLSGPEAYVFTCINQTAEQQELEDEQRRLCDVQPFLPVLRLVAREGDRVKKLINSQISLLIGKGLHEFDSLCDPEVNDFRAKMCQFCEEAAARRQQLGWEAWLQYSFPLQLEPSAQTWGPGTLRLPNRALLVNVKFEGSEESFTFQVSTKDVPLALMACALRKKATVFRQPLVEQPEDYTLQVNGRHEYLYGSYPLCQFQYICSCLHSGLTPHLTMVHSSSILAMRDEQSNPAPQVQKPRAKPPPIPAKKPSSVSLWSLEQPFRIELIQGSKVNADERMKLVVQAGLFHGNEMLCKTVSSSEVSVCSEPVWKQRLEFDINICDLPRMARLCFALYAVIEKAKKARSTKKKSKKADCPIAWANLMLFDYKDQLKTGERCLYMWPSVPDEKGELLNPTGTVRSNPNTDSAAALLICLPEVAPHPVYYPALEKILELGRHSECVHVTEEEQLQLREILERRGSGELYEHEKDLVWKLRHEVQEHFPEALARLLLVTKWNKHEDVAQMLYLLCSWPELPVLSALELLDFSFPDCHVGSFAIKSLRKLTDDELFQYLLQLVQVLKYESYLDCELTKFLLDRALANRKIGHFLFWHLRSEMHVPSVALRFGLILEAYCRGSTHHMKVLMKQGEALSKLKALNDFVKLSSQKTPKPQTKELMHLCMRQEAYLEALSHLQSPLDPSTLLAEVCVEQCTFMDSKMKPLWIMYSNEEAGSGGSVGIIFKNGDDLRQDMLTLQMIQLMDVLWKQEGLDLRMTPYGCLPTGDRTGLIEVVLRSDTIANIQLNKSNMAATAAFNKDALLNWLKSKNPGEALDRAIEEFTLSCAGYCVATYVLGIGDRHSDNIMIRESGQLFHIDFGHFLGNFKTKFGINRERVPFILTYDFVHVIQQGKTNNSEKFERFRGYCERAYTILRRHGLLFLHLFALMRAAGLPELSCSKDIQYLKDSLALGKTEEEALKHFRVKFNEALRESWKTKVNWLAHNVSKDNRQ
PI3Kδ, sequence (P27986 whole entry partner): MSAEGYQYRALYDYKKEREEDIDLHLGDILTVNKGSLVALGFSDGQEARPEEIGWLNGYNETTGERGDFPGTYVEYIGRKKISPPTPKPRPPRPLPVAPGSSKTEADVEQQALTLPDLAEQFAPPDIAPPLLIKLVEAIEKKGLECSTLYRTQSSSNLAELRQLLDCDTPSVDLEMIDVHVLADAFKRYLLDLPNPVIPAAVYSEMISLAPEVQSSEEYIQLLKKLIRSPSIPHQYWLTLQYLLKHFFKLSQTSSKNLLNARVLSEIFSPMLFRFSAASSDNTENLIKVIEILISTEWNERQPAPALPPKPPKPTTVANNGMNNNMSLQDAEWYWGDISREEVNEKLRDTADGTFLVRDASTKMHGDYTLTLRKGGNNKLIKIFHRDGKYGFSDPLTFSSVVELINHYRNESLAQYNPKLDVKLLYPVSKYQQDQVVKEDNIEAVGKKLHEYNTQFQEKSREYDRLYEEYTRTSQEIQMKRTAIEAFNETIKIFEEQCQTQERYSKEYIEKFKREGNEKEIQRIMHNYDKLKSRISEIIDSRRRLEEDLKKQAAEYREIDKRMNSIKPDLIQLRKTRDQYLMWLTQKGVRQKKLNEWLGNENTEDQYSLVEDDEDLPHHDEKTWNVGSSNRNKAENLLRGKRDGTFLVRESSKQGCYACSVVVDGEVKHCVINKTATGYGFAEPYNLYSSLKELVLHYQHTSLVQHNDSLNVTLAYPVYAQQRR
Experimental: A PI3K Alphascreen® assay (PerkinElmer, Waltham, Mass.) was used to measure the activity of a panel of four phosphoinositide 3-kinases: PI3Kα, PI3Kβ, PI3Kγ, and PI3Kδ. Enzyme reaction buffer was prepared using sterile water (Baxter, Deerfield, Ill.) and 50 mM Tris HCl pH 7, 14 mM MgCl2, 2 mM sodium cholate, and 100 mM NaCl. 2 mM DTT was added fresh the day of the experiment. The Alphascreen buffer was made using sterile water and 10 mM Tris HCl pH 7.5, 150 mM NaCl, 0.10% Tween 20, and 30 mM EDTA. 1 mM DTT was added fresh the day of the experiment. Compound source plates used for this assay were 384-well Greiner clear polypropylene plates containing test compounds at 5 mM and diluted 1:2 over 22 concentrations. Columns 23 and 24 contained only DMSO as these wells comprised the positive and negative controls, respectively. Source plates were replicated by transferring 0.5 uL per well into 384-well Optiplates (PerkinElmer, Waltham, Mass.).
Each PI3K isoform was diluted in enzyme reaction buffer to 2× working stocks. PI3Kα was diluted to 1.6 nM, PI3Kβ was diluted to 0.8 nM, PI3Kγ was diluted to 15 nM, and PI3Kδ was diluted to 1.6 nM. PI(4,5)P2 (Echelon Biosciences, Salt Lake City, Utah) was diluted to 10 μM and ATP was diluted to 20 μM. This 2× stock was used in the assays for PI3Kα and PI3Kβ. For assay of PI3Kγ and PI3Kδ, PI(4,5)P2 was diluted to 10 μM and ATP was diluted to 8 μM to prepare a similar 2× working stock. Alphascreen reaction solutions were made using beads from the anti-GST Alphascreen kit (PerkinElmer, Waltham, Mass.). Two 4× working stocks of the Alphascreen reagents were made in Alphascreen reaction buffer. In one stock, biotinylated-IP4 (Echelon Biosciences, Salt Lake City, Utah) was diluted to 40 nM and streptavadin-donor beads were diluted to 80 μg/mL. In the second stock, PIP3-binding protein (Echelon Biosciences, Salt Lake City, Utah) was diluted to 40 nM and anti-GST-acceptor beads were diluted to 80 μg/mL.
Using a 384-well Multidrop (Titertek, Huntsville, Ala.), 10 μL/well of 2× enzyme stock was added to columns 1-24 of the assay plates for each isoform. 10 μL/well of the appropriate substrate 2× stock (containing 20 μM ATP for the PI3Kα and β assays and containing 8 μM ATP for the PI3Kγ and δ assays) was then added to Columns 1-24 of all plates. Plates were then incubated at room temperature for 20 minutes. In the dark, 10 μL/well of the donor bead solution was added to columns 1-24 of the plates to quench the enzyme reaction. The plates were incubated at room temperature for 30 minutes. Still in the dark, 10 μL/well of the acceptor bead solution was added to columns 1-24 of the plates. The plates were then incubated in the dark for 1.5 hours. The plates were read on an Envision multimode Plate Reader (PerkinElmer, Waltham, Mass.) using a 680 nm excitation filter and a 520-620 nm emission filter.
What is called Ki is a dissociation constant, usually derived from enzyme kinetics or from competition with a known ligand. A low value points to a stronger hold on the target. As to `CC1(C)CN(c2c3c(nc4ccc(Cl)cc24)CCCC3)c2cc(N3CCOCC3)ccc21` [7-chloro-9-(3,3-dimethyl-6-(4-morpholinyl)-2,3-dihydro-1H-indol-1-yl)-1,2,3,4-tetrahydroacridine], the affinity, expressed as Ki, was 2620 nM. That is a single-digit micromolar value.

Turning to `Cc1c(-c2cccc3[nH]ccc23)nc2cc(F)cc(F)c2c1N1CC(C)(C)c2ncc(N3CCOCC3)cc21` [4-(3,3-dimethyl-6-(4-morpholinyl)-2,3-dihydro-1H-pyrrolo[3,2-b]pyridin-1-yl)-5,7-difluoro-2-(1H-indol-4-yl)-3-methylquinoline], the affinity, expressed as Ki, was 2.77 nM.

In turn, `Cc1nc2c(C)cccc2c(N2CC3(CCOCC3)c3ccc(N4CCOCC4)cc32)c1C` [6-(4-morpholinyl)-1-(2,3,8-trimethyl-4-quinolinyl)-1,2,2′,3′,5′,6′-hexahydrospiro[indole-3,4′-pyran]] gave a Ki of 121 nM.

For `Cc1c(-c2ccccn2)nc2cc(F)ccc2c1N1CC2(CCOCC2)c2ccc(N3CCOCC3)cc21` [1-(7-fluoro-3-methyl-2-(2-pyridinyl)-4-quinolinyl)-6-(4-morpholinyl)-1,2,2′,3′,5′,6′-hexahydrospiro[indole-3,4′-pyran]], the Ki stood at 18.2 nM.

As to `Cc1c(N2CCCCC2=O)nc2cc(F)ccc2c1N1CC2(CCOCC2)c2ncc(N3CCOCC3)cc21` [1-(7-fluoro-3-methyl-4-(6′-(4-morpholinyl)-2,3,5,6-tetrahydrospiro[pyran-4,3′-pyrrolo[3,2-b]pyridin]-1′(2′H)-yl)-2-quinolinyl)-2-piperidinone], the Ki is 1.62 nM.

Regarding `Cc1c(-c2ccccn2)nc2cc(F)ccc2c1N1CC(C)(C)c2nc(C#N)c(N3CCOCC3)cc21` [1-(7-fluoro-3-methyl-2-(2-pyridinyl)-4-quinolinyl)-3,3-dimethyl-6-(4-morpholinyl)-2,3-dihydro-1H-pyrrolo[3,2-b]pyridine-5-carbonitrile], the Ki was determined as 49.5 nM. This Ki is about 31-fold higher than that of the molecule before.

In turn, `Cc1cc(C)cc(-c2nc3cc(F)ccc3c(N3CC(C)(C)c4ncc(N5CCOCC5)cc43)c2C)c1` [4-(3,3-dimethyl-6-(4-morpholinyl)-2,3-dihydro-1H-pyrrolo[3,2-b]pyridin-1-yl)-2-(3,5-dimethylphenyl)-7-fluoro-3-methylquinoline] yielded a Ki of 15.6 nM.

As for `Cc1c(/C=C/c2ccccc2)nc2cc(F)cc(F)c2c1N1CC(C)(C)c2ncc(N3CCOCC3)cc21` [4-(3,3-dimethyl-6-(4-morpholinyl)-2,3-dihydro-1H-pyrrolo[3,2-b]pyridin-1-yl)-5,7-difluoro-3-methyl-2-((E)-2-phenylethenyl)quinoline], the Ki came out at 88.3 nM.

`COc1cc2nc(C)c(C)c(N3CC(C)(C)c4ccc(N5CCOCC5)cc43)c2cc1C` [4-(3,3-dimethyl-6-(4-morpholinyl)-2,3-dihydro-1H-indol-1-yl)-7-methoxy-2,3,6-trimethylquinoline] showed a Ki of 622 nM.

`Cc1c(-c2ccccc2S(C)(=O)=O)nc2cc(F)ccc2c1N1CC(C)(C)c2ccc(N3CCOCC3)cc21` [4-(3,3-dimethyl-6-(4-morpholinyl)-2,3-dihydro-1H-indol-1-yl)-7-fluoro-3-methyl-2-(2-(methylsulfonyl)phenyl)quinoline] gave a Ki of 4.43 nM.

Regarding `Cc1c(-c2cccc(=O)[nH]2)nc2cc(F)ccc2c1N1CC(C)(C)c2ncc(N3CCOCC3)cc21` [6-(4-(3,3-dimethyl-6-(4-morpholinyl)-2,3-dihydro-1H-pyrrolo[3,2-b]pyridin-1-yl)-7-fluoro-3-methyl-2-quinolinyl)-2(1H)-pyridinone], the affinity, expressed as Ki, was 14.7 nM. Against the preceding molecule, the Ki is about 3.3-fold higher.

The molecule `Cc1c(-c2ccccn2)nc2cc(F)ccc2c1N1CC2(CCOCC2)c2nc(C#N)c(N3CCOCC3)cc21` [1′-(7-fluoro-3-methyl-2-(2-pyridinyl)-4-quinolinyl)-6′-(4-morpholinyl)-1′,2,2′,3,5,6-hexahydrospiro[pyran-4,3′-pyrrolo[3,2-b]pyridine]-5′-carbonitrile] displayed a Ki of 219 nM.

For `Cc1c(-c2ccccn2)nc2cc(F)ccc2c1N1CCOc2ccc(N3CCOCC3)cc21` [4-(7-fluoro-3-methyl-2-(2-pyridinyl)-4-quinolinyl)-6-(4-morpholinyl)-3,4-dihydro-2H-1,4-benzoxazine], the Ki is 351 nM.

`Cc1c(N2CC(C)(C)CCC2=O)nc2cc(F)cc(F)c2c1N1CC2(CCOCC2)c2ncc(N3CCOCC3)cc21` [1-(5,7-difluoro-3-methyl-4-(6′-(4-morpholinyl)-2,3,5,6-tetrahydrospiro[pyran-4,3′-pyrrolo[3,2-b]pyridin]-1′(2′H)-yl)-2-quinolinyl)-5,5-dimethyl-2-piperidinone] had a Ki of 2.7 nM.

With `Cc1nc2c(Cl)cccc2c(N2CC(C)(C)c3ccc(N4CCOCC4)cc32)c1C` [8-chloro-4-(3,3-dimethyl-6-(4-morpholinyl)-2,3-dihydro-1H-indol-1-yl)-2,3-dimethylquinoline], affinity was put at a Ki of 50 nM.

`Cc1c(N2CCCC2=O)nc2cc(F)cc(F)c2c1N1CC2(CCOCC2)c2ncc(N3CCOCC3)cc21` [1-(5,7-difluoro-3-methyl-4-(6′-(4-morpholinyl)-2,3,5,6-tetrahydrospiro[pyran-4,3′-pyrrolo[3,2-b]pyridin]-1′(2′H)-yl)-2-quinolinyl)-2-pyrrolidinone] returned a Ki of 2.36 nM.

`Cc1c(-c2ccccn2)nc2ncccc2c1N1CC2(CCOCC2)c2ncc(N3CCOCC3)cc21` [1′-(3-methyl-2-(2-pyridinyl)-1,8-naphthyridin-4-yl)-6′-(4-morpholinyl)-1′,2,2′,3,5,6-hexahydrospiro[pyran-4,3′-pyrrolo[3,2-b]pyridine]] yielded a Ki of 65.9 nM.

Molecule `Cc1c(N2CCN(C(=O)OC(C)(C)C)CC2)nc2cc(F)cc(F)c2c1N1CC2(CCOCC2)c2ncc(N3CCOCC3)cc21` [tert-butyl 4-(5,7-difluoro-3-methyl-4-(6′-(4-morpholinyl)-2,3,5,6-tetrahydrospiro[pyran-4,3′-pyrrolo[3,2-b]pyridin]-1′(2′H)-yl)-2-quinolinyl)-1-piperazinecarboxylate] had a Ki of 12.4 nM.

For the molecule `COc1cc2nc(C)c(C)c(N3CC4(CCOCC4)c4ccc(C#N)cc43)c2cc1Cl` [1-(6-chloro-7-methoxy-2,3-dimethyl-4-quinolinyl)-1,2,2′,3′,5′,6′-hexahydrospiro[indole-3,4′-pyran]-6-carbonitrile], the affinity corresponds to a Ki of 7500 nM.

On to `Cc1c(Cc2cccc(F)c2)nc2cc(F)cc(F)c2c1N1CC(C)(C)c2ncc(N3CCOCC3)cc21` [4-(3,3-dimethyl-6-(4-morpholinyl)-2,3-dihydro-1H-pyrrolo[3,2-b]pyridin-1-yl)-5,7-difluoro-2-(3-fluorobenzyl)-3-methylquinoline], for which the Ki was found to be 2.87 nM.

In the case of `COc1cc(OC)c2nc(C)c(C)c(N3CC(C)(C)c4ccc(N5CCOCC5)cc43)c2c1` [4-(3,3-dimethyl-6-(4-morpholinyl)-2,3-dihydro-1H-indol-1-yl)-6,8-dimethoxy-2,3-dimethylquinoline], the affinity, expressed as Ki, was 3970 nM.

In turn, `Cc1c(-c2cccc(C#N)c2)nc2cc(F)ccc2c1N1CC(C)(C)c2ccc(N3CCOCC3)cc21` [3-(4-(3,3-dimethyl-6-(4-morpholinyl)-2,3-dihydro-1H-indol-1-yl)-7-fluoro-3-methyl-2-quinolinyl)benzonitrile] had a Ki of 154 nM.

In turn, `Cc1c(-c2ccccc2F)nc2cc(Cl)ccc2c1N1CC2(CCOCC2)c2ccc(N3CCOCC3)cc21` [1-(7-chloro-2-(2-fluorophenyl)-3-methyl-4-quinolinyl)-6-(4-morpholinyl)-1,2,2′,3′,5′,6′-hexahydrospiro[indole-3,4′-pyran]] displayed a Ki of 570 nM.

The molecule `Cc1c(N2CCN(S(C)(=O)=O)CC2)nc2cc(F)cc(F)c2c1N1CC2(CCOCC2)c2ncc(N3CCOCC3)cc21` [1′-(5,7-difluoro-3-methyl-2-(4-(methylsulfonyl)-1-piperazinyl)-4-quinolinyl)-6′-(4-morpholinyl)-1′,2,2′,3,5,6-hexahydrospiro[pyran-4,3′-pyrrolo[3,2-b]pyridine]] had a Ki of 2.3 nM.

Consider `COc1ccccc1-c1cc(N2CC(C)(C)c3ccc(N4CCOCC4)cc32)c2cc(Cl)ccc2n1` [6-chloro-4-(3,3-dimethyl-6-(4-morpholinyl)-2,3-dihydro-1H-indol-1-yl)-2-(2-methoxyphenyl)quinoline], for which the Ki stood at 5560 nM. Compared with the last molecule, the Ki is about 2400-fold higher.

As to `Cc1c(-c2ccccn2)nc2cccc(F)c2c1N1CC(C)(C)c2ncc(N3CCOCC3)cc21` [4-(3,3-dimethyl-6-(4-morpholinyl)-2,3-dihydro-1H-pyrrolo[3,2-b]pyridin-1-yl)-5-fluoro-3-methyl-2-(2-pyridinyl)quinoline], the affinity corresponds to a Ki of 3.33 nM.

As to `Cc1c(-c2cncc(F)c2)nc2cc(F)cc(F)c2c1N1CC(C)(C)c2ncc(N3CCOCC3)cc21` [4-(3,3-dimethyl-6-(4-morpholinyl)-2,3-dihydro-1H-pyrrolo[3,2-b]pyridin-1-yl)-5,7-difluoro-2-(5-fluoro-3-pyridinyl)-3-methylquinoline], the Ki was 5.21 nM.

As to `Cc1c(-c2cccc3ccccc23)nc2cc(F)cc(F)c2c1N1CC(C)(C)c2ncc(N3CCOCC3)cc21` [4-(3,3-dimethyl-6-(4-morpholinyl)-2,3-dihydro-1H-pyrrolo[3,2-b]pyridin-1-yl)-5,7-difluoro-3-methyl-2-(1-naphthalenyl)quinoline], the Ki was 230 nM.

Consider `CC1(C)CN(c2c3c(nc4ccc(Cl)cc24)C(C)(C)CC3)c2cc(N3CCOCC3)ccc21` [7-chloro-9-(3,3-dimethyl-6-(4-morpholinyl)-2,3-dihydro-1H-indol-1-yl)-3,3-dimethyl-2,3-dihydro-1H-cyclopenta[b]quinoline], for which the Ki was found to be 111 nM.

The molecule `COc1cccc(-c2nc3cc(F)ccc3c(N3CC4(CCOCC4)c4ccc(N5CCOCC5)cc43)c2C)n1` [1-(7-fluoro-2-(6-methoxy-2-pyridinyl)-3-methyl-4-quinolinyl)-6-(4-morpholinyl)-1,2,2′,3′,5′,6′-hexahydrospiro[indole-3,4′-pyran]] registered a Ki of 68.8 nM.

In a further experiment the test system is Class I PI 3-kinases. The conditions noted are these: wortmannin; read-out: IC50 values against each of the various Class I PI 3-kinases; cited from earlier work.
For orientation: IC50 means the point on the concentration scale where inhibition reaches its midpoint. As to `COC[C@H]1OC(=O)c2coc3c2[C@@]1(C)C1=C(C3=O)[C@@H]2CCC(=O)[C@@]2(C)C[C@H]1OC(C)=O` [wortmannin], the IC50 is 1 to 10 nM.

For the next experiment, the system named is neutrophil migration. The following applies: cited from earlier work.
Consider `COC[C@H]1OC(=O)c2coc3c2[C@@]1(C)C1=C(C3=O)[C@@H]2CCC(=O)[C@@]2(C)C[C@H]1OC(C)=O` [wortmannin], for which the neutrophil migration result is “block”.

The test system of the next experiment is superoxide release. The following applies: cited from earlier work.
For `COC[C@H]1OC(=O)c2coc3c2[C@@]1(C)C1=C(C3=O)[C@@H]2CCC(=O)[C@@]2(C)C[C@H]1OC(C)=O` [wortmannin], the superoxide release entry is listed as “block”.
